Test results reported in US9439878B2, “Use of lumefantrine and related compounds in the treatment of cancer” (priority 2010, dated 2016).

Assays:
[1] = tested on: Ba/F3 cells expressing wild-type BCR-ABL (p210); assay: MTT cell viability assay, Ba/F3 cells expressing wild-type (p210) Bcr-Abl; assay type: cell-based, Murine; details: for potency relative to chloroquine (cell viability): chloroquine 25 μM control
Description: (§1) A study conducted through the independent Cancer Therapy & Research Center, Institute for Drug Development at the University of Texas Health Science Center at San Antonio, Tex., evaluated lumefantrine as an autophagy inhibitor (i.e., “Lumefantrine Study”). […] 1; 110(1):313-22. Epub 2007 Mar. 15. PMID: 17363733”. Murine Ba/F3 cells that stably express wild-type BCR-ABL (p210) or the T315I mutated version of BCR-ABL, which confers resistance to imatinib and nilotinib were utilized for this study. Cells were propagated at 37° C. in a humidified atmosphere containing 5% carbon dioxide. Cell viability was determined using the MTT assay. This colorimetric procedure measures conversion of the MTT reagent (a tetrazoleum salt) to formazan by mitochondria. Formazan production was quantified by spectrophotometric measurement at 570 nm and was proportional to viable cell number. Cells were cultured and treated with different concentrations of the agent(s) for 48 hours. Following treatment, 50 μl of MTT was added to each well and allowed to incubate for 1-3 hours at 37° C. Each well was aspirated and 200 μl of DMSO was added to each well to dissolve the formazan. […] Lumefantrine was tested as potential autophagy inhibitor at final concentrations between one to forty micromolar. […] The ER stressor drugs tested and their final concentrations were GleevecTM (imatinib, Novartis, final 350 nM), […] (nilotinib, Novartis, final 35 nM) or ZolinzaTM (suberoylanilide hydroxamic acid, Merck, final 1 μM).

[2] = tested on: Ba/F3 cells expressing T315I mutated BCR-ABL; assay: MTT cell viability assay, Ba/F3 cells expressing mutant Bcr-Abl (T315I); assay type: cell-based, Murine; details: for potency relative to chloroquine (cell viability): chloroquine 25 μM control
Description: as §1

CCCCN(CCCC)CC(O)c1cc(Cl)cc2c1-c1ccc(Cl)cc1/C2=C\c1ccc(Cl)cc1 (racemic) [lumefantrine, 2-(dibutylamino)-1-[(9E)-2,7-dichloro-9-(4-chlorobenzylidene)-9H-fluoren-4-yl]ethanol]
potency relative to chloroquine (cell viability) ([1]; SAHA experiment, Ba/F3 p210): equipotent with chloroquine
potency relative to chloroquine (cell viability) ([1]; imatinib experiment, Ba/F3 p210): equipotent with chloroquine
cell viability (MTT, OD 570 nm) ([1]; lumefantrine 1-40 micromolar, with and without SAHA 1 μM, 48 hours, Ba/F3 p210 (FIG. 2)): dose-dependent reductions in the cell viability
potency relative to chloroquine (cell viability) ([1]; nilotinib experiment, Ba/F3 p210): equipotent with chloroquine
enhancement of suberoylanilide hydroxamic acid (SAHA) effect on proliferation/viability ([1]; with SAHA 1 μM, 48 hours, Ba/F3 p210): enhanced the suberoylanilide hydroxamic acid drug response
augmentation of imatinib effects on cell viability ([1]; with imatinib 350 nM, 48 hours, Ba/F3 p210 (FIG. 4)): augments the imatinib effects
augmentation of nolotinb effects on cell viability ([1]; with nilotinib 35 nM, 48 hours, Ba/F3 p210 (FIG. 6)): augments the nolotinb effects
potency relative to chloroquine (cell viability) ([2]; SAHA experiment, Ba/F3 T315I): equipotent with chloroquine
potency relative to chloroquine (cell viability) ([2]; imatinib experiment, Ba/F3 T315I): equipotent with chloroquine
cell viability (MTT, OD 570 nm) ([2]; lumefantrine 1-40 micromolar, with and without SAHA 1 μM, 48 hours, Ba/F3 T315I (FIG. 3)): dose-dependent reductions in the cell viability
potency relative to chloroquine (cell viability) ([2]; nilotinib experiment, Ba/F3 T315I): equipotent with chloroquine
enhancement of suberoylanilide hydroxamic acid (SAHA) effect on proliferation/viability ([2]; with SAHA 1 μM, 48 hours, Ba/F3 T315I): enhanced the suberoylanilide hydroxamic acid drug response
augmentation of imatinib effects on cell viability ([2]; with imatinib 350 nM, 48 hours, Ba/F3 T315I (FIG. 5)): the only effects on viability are those generated by lumefantrine alone
augmentation of nolotinb effects on cell viability ([2]; with nilotinib 35 nM, 48 hours, Ba/F3 T315I (FIG. 7)): the only effects on viability are those generated by lumefantrine alone
